Results from US9586961B2, “Homopiperazine derivatives as protein tyrosine kinase inhibitors and pharmaceutical use thereof” (LEO PHARMA A/S, priority 2010, dated 2017).

Experiments:
Assay type in all cases: biochemical
JAK1 = biological target: T1, JAK1 (Homo sapiens, UniProt P23458); assay: JAK1 kinase assay (HTRF, inhibition of phosphorylation of a synthetic peptide); settings: catalytic domain aa 850-1154, GST-tag; 7 μM ATP (Km); read-out: JAK1 kinase inhibitory activity (EC50)
T1 construct: JAK1 (aa 850-1154) and TYK2 (aa 871-1187) are expressed with an N-terminally fused GST-tag; GST (N); purchased Carna Biosciences, Inc; host or cells: baculovirus expression system
Experimental: (§1) JAK1, JAK2, JAK3 and TYK2 Kinase Assays:
(§2) Human baculovirus-expressed JAK1, 2, 3 and TYK2 were purchased from Carna Biosciences, Inc. All four purified enzymes contain only the catalytic domain. JAK1 (aa 850-1154) and TYK2 (aa 871-1187) are expressed with an N-terminally fused GST-tag, and JAK2 and JAK3 with an N-terminally fused His-tag. Inhibition of phosphorylation of a synthetic peptide was measured in an HTRF-based assay using the TK substrate-Biotin from the CisbioHTRFKinEASE TK kit. First, 2 μl of TK solution (TK substrate-biotin in kinase buffer [1× enzymatic buffer from HTRFKinEASE TK kit, 1 mM DTT]) is added to a plate containing 1 μl prediluted compound (final assay concentration DMSO: 0.75%). Then, 5 μl kinase-ATP mix (prepared in kinase buffer) is added to the wells and the plates are incubated at RT for 20-30 min. For all four kinases a concentration of ATP that corresponded to the Km for ATP was used. The final concentrations of buffers, substrate, kinase and ATP were: JAK1: 50 mMHepes buffer pH 7.0, 0.01% BSA, 10 mM MgCl2, 1 mM DTT, 7 μM ATP, 50 nMSEB, 1 μM TK Substrate-Biotin and 5 ng JAK1; JAK2: 50 mM Hepes buffer pH 7.0, 0.01% BSA, 5 mM MgCl2, 1 mM DTT, 4 μM ATP, 1 μM TK Substrate-Biotin and 0.1 ng JAK2; JAK3: 50 mMHepes buffer pH 7.0, 0.01% BSA, 5 mM MgCl2, 1 mM DTT, 2 μM ATP, 1 μM TK Substrate-Biotin and 0.3 ng JAK3; TYK2: 50 mMHepes buffer pH 7.0, 0.01% BSA, 5 mM MgCl2, 1 mM DTT, 13 μM ATP, 50 nMSEB, 1 μM TK Substrate-Biotin and 0.8 ng TYK2. Thereafter, the kinase reaction is stopped by adding 4 μl detection mix (final concentrations: 50 mM Hepes buffer pH 7.0, 0.01% BSA, 0.8 M KF, 20 mM EDTA, 42 nM Streptavidin-XL665 and 1:400 STKAbCryptate) and the plates are incubated overnight in the dark. The HTRF signal is read using an Envision plate reader.

JAK3 = biological target: T2, JAK3 (Homo sapiens, UniProt P52333); assay: JAK3 kinase assay (HTRF, inhibition of phosphorylation of a synthetic peptide); settings: catalytic domain, His-tag; 2 μM ATP (Km); read-out: JAK3 kinase inhibitory activity (EC50)
T2 construct: All four purified enzymes contain only the catalytic domain; His (N); purchased Carna Biosciences, Inc; host or cells: baculovirus expression system
Experimental: as §1, §2

JAK2 = biological target: T3, JAK2 (Homo sapiens, UniProt O60674); assay: JAK2 kinase assay (HTRF, inhibition of phosphorylation of a synthetic peptide); settings: catalytic domain, His-tag; 4 μM ATP (Km); read-out: JAK2 kinase inhibitory activity (EC50)
T3 construct: All four purified enzymes contain only the catalytic domain; His (N); purchased Carna Biosciences, Inc; host or cells: baculovirus expression system
Experimental: as §1, §2

T2 sequence (P52333 822-1111 limits assumed): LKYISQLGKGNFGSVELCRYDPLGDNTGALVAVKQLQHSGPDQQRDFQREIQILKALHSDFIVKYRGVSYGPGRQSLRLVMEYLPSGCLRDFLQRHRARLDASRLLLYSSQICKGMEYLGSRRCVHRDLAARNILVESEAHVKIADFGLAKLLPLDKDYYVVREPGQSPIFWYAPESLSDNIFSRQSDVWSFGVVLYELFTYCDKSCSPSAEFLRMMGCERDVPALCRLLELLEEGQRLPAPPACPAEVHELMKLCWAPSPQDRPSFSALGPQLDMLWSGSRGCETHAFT
T1 sequence (P23458 850-1154): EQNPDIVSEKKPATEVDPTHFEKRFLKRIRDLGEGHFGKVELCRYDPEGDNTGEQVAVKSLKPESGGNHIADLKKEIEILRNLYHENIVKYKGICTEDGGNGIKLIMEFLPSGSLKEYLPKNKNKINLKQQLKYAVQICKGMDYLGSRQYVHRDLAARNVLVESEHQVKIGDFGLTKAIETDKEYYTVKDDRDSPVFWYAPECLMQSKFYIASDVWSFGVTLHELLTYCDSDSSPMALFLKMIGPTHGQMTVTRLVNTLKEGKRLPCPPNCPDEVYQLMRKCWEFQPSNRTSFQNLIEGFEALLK
T3 sequence (O60674 849-1124 limits assumed): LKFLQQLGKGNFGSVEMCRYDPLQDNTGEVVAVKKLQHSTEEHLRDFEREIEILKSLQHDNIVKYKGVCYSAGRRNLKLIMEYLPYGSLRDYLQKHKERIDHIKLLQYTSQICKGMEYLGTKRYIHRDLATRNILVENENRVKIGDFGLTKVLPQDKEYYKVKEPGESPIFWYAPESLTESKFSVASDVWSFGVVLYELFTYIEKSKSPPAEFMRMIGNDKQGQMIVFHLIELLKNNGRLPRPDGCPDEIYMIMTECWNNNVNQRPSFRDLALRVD

| Structure (SMILES) | EC50 (JAK1) [nM] | EC50 (JAK3) [nM] | EC50 (JAK2) [nM] |
| --- | --- | --- | --- |
| O=C(c1cccnc1)N1CCCN(c2ncnc3[nH]ccc23)CC12CC2 [Example 128, 3-pyridyl-[5-(7H-pyrrolo[2,3-d]pyrimidin-4-yl)-5,9-diazaspiro[2.6]nonan-9-yl]methanone] | 100 to 1000 | > 1000 | 100 to 1000 |
| O=C(c1ccncc1)N1CCN(c2ncnc3[nH]ccc23)CC2(CC2)C1 [Example 129, 4-pyridyl-[5-(7H-pyrrolo[2,3-d]pyrimidin-4-yl)-5,8-diazaspiro[2.6]nonan-8-yl]methanone] | 100 to 1000 | > 1000 | 100 to 1000 |
| O=C(c1ccncc1)N1CCCN(c2ncnc3[nH]ccc23)CC12CC2 [Example 130, 4-pyridyl-[5-(7H-pyrrolo[2,3-d]pyrimidin-4-yl)-5,9-diazaspiro[2.6]nonan-9-yl]methanone] | 100 to 1000 | > 1000 | 100 to 1000 |
| O=C(c1ccc(O)nc1)N1CCN(c2ncnc3[nH]ccc23)CC2(CC2)C1 [Example 131, (6-hydroxy-3-pyridyl)-[5-(7H-pyrrolo[2,3-d]pyrimidin-4-yl)-5,8-diazaspiro[2.6]nonan-8-yl]methanone] | 100 to 1000 | 100 to 1000 | 100 to 1000 |
| O=C(c1ccc(O)nc1)N1CCCN(c2ncnc3[nH]ccc23)CC12CC2 [Example 132, (6-hydroxy-3-pyridyl)-[5-(7H-pyrrolo[2,3-d]pyrimidin-4-yl)-5,9-diazaspiro[2.6]nonan-9-yl]methanone] | 100 to 1000 | 100 to 1000 | 100 to 1000 |
| O=C(c1c[nH]cn1)N1CCN(c2ncnc3[nH]ccc23)CC2(CC2)C1 [Example 133, 1H-imidazol-4-yl-[5-(7H-pyrrolo[2,3-d]pyrimidin-4-yl)-5,8-diazaspiro[2.6]nonan-8-yl]methanone] | 100 to 1000 | 100 to 1000 | 100 to 1000 |
| O=C(c1c[nH]cn1)N1CCCN(c2ncnc3[nH]ccc23)CC12CC2 [Example 134, 1H-imidazol-4-yl-[5-(7H-pyrrolo[2,3-d]pyrimidin-4-yl)-5,9-diazaspiro[2.6]nonan-9-yl]methanone] | 100 to 1000 | 100 to 1000 | 100 to 1000 |
| Cc1ncccc1C(=O)N1CCN(c2ncnc3[nH]ccc23)CC2(CC2)C1 [Example 135, (2-methyl-3-pyridyl)-[5-(7H-pyrrolo[2,3-d]pyrimidin-4-yl)-5,8-diazaspiro[2.6]nonan-8-yl]methanone] | > 1000 | > 1000 | > 1000 |
| Cc1ncccc1C(=O)N1CCCN(c2ncnc3[nH]ccc23)CC12CC2 [Example 136, (2-methyl-3-pyridyl)-[5-(7H-pyrrolo[2,3-d]pyrimidin-4-yl)-5,9-diazaspiro[2.6]nonan-9-yl]methanone] | > 1000 | > 1000 | 100 to 1000 |
| Cc1cnccc1C(=O)N1CCN(c2ncnc3[nH]ccc23)CC2(CC2)C1 [Example 137, (3-methyl-4-pyridyl)-[5-(7H-pyrrolo[2,3-d]pyrimidin-4-yl)-5,8-diazaspiro[2.6]nonan-8-yl]methanone] | > 1000 | > 1000 | 100 to 1000 |
| Cc1cnccc1C(=O)N1CCCN(c2ncnc3[nH]ccc23)CC12CC2 [Example 138, (3-methyl-4-pyridyl)-[5-(7H-pyrrolo[2,3-d]pyrimidin-4-yl)-5,9-diazaspiro[2.6]nonan-9-yl]methanone] | > 1000 | > 1000 | 100 to 1000 |
| O=C(c1ccnnc1)N1CCN(c2ncnc3[nH]ccc23)CC2(CC2)C1 [Example 139, pyridazin-4-yl-[5-(7H-pyrrolo[2,3-d]pyrimidin-4-yl)-5,8-diazaspiro[2.6]nonan-8-yl]methanone] | 100 to 1000 | > 1000 | 100 to 1000 |
| Cc1nc(C)c(CC(=O)N2CCCN(c3ncnc4[nH]ccc34)CC23CC3)s1 [Example 140, 2-(2,4-dimethylthiazol-5-yl)-1-[5-(7H-pyrrolo[2,3-d]pyrimidin-4-yl)-5,9-diazaspiro[2.6]nonan-9-yl]ethanone] | > 1000 | > 1000 | > 1000 |
| Cc1cc(C(=O)N2CCN(c3ncnc4[nH]ccc34)CC3(CC3)C2)n(C)n1 [Example 143, (2,5-dimethylpyrazol-3-yl)-[5-(7H-pyrrolo[2,3-d]pyrimidin-4-yl)-5,8-diazaspiro[2.6]nonan-8-yl]methanone] | > 1000 | > 1000 | > 1000 |
| Cn1cncc1C(=O)N1CCN(c2ncnc3[nH]ccc23)CC2(CC2)C1 [Example 144, (3-methylimidazol-4-yl)-[5-(7H-pyrrolo[2,3-d]pyrimidin-4-yl)-5,8-diazaspiro[2.6]nonan-8-yl]methanone] | 100 to 1000 | > 1000 | 100 to 1000 |
| Cn1cncc1C(=O)N1CCCN(c2ncnc3[nH]ccc23)CC12CC2 [Example 145, (3-methylimidazol-4-yl)-[5-(7H-pyrrolo[2,3-d]pyrimidin-4-yl)-5,9-diazaspiro[2.6]nonan-9-yl]methanone] | 100 to 1000 | > 1000 | 100 to 1000 |
| Cc1nnsc1C(=O)N1CCN(c2ncnc3[nH]ccc23)CC2(CC2)C1 [Example 146, (4-methylthiadiazol-5-yl)-[5-(7H-pyrrolo[2,3-d]pyrimidin-4-yl)-5,8-diazaspiro[2.6]nonan-8-yl]methanone] | 100 to 1000 | > 1000 | 100 to 1000 |
| Cc1nnsc1C(=O)N1CCCN(c2ncnc3[nH]ccc23)CC12CC2 [Example 147, (4-methylthiadiazol-5-yl)-[5-(7H-pyrrolo[2,3-d]pyrimidin-4-yl)-5,9-diazaspiro[2.6]nonan-9-yl]methanone] | 100 to 1000 | > 1000 | 100 to 1000 |
| Cc1cc(C(=O)N2CCN(c3ncnc4[nH]ccc34)CC3(CC3)C2)[nH]n1 [Example 148, (5-methyl-1H-pyrazol-3-yl)-[5-(7H-pyrrolo[2,3-d]pyrimidin-4-yl)-5,8-diazaspiro[2.6]nonan-8-yl]methanone] | 100 to 1000 | > 1000 | 100 to 1000 |
| Cc1cc(C(=O)N2CCCN(c3ncnc4[nH]ccc34)CC23CC3)n[nH]1 [Example 149, (5-methyl-1H-pyrazol-3-yl)-[5-(7H-pyrrolo[2,3-d]pyrimidin-4-yl)-5,9-diazaspiro[2.6]nonan-9-yl]methanone] | 100 to 1000 | > 1000 | 100 to 1000 |
| Cc1ccncc1C(=O)N1CCN(c2ncnc3[nH]ccc23)CC2(CC2)C1 [Example 150, (4-methyl-3-pyridyl)-[5-(7H-pyrrolo[2,3-d]pyrimidin-4-yl)-5,8-diazaspiro[2.6]nonan-8-yl]methanone] | 100 to 1000 | > 1000 | > 1000 |
| Cc1ccncc1C(=O)N1CCCN(c2ncnc3[nH]ccc23)CC12CC2 [Example 151, (4-methyl-3-pyridyl)-[5-(7H-pyrrolo[2,3-d]pyrimidin-4-yl)-5,9-diazaspiro[2.6]nonan-9-yl]methanone] | 100 to 1000 | > 1000 | 100 to 1000 |
| O=C(c1ccon1)N1CCN(c2ncnc3[nH]ccc23)CC2(CC2)C1 [Example 152, isoxazol-3-yl-[5-(7H-pyrrolo[2,3-d]pyrimidin-4-yl)-5,8-diazaspiro[2.6]nonan-8-yl]methanone] | 100 to 1000 | 100 to 1000 | 100 to 1000 |
| Cc1nnc(C(=O)N2CCCN(c3ncnc4[nH]ccc34)CC23CC3)o1 [Example 154, (5-methyl-1,3,4-oxadiazol-2-yl)-[5-(7H-pyrrolo[2,3-d]pyrimidin-4-yl)-5,9-diazaspiro[2.6]nonan-9-yl]methanone] | 100 to 1000 | 100 to 1000 | < 100 |
| O=C(c1cnco1)N1CCN(c2ncnc3[nH]ccc23)CC2(CC2)C1 [Example 155, oxazol-5-yl-[5-(7H-pyrrolo[2,3-d]pyrimidin-4-yl)-5,8-diazaspiro[2.6]nonan-8-yl]methanone] | 100 to 1000 | 100 to 1000 | 100 to 1000 |
